Reference: patent US8785608B2, “Crystalline heteroaromatic fluoroglycoside hydrates, pharmaceuticals comprising these compounds and their use” (Sanofi, priority 2009, dated 2014)

How the values were obtained:
Format in all cases: physicochemical
[1] = Long term storage stability in glass vials (chemical stability); conditions: for Puirity (area %) / Total increase (area %): +40° C.
Source text: The following tables 2 and 3 show data for the storage stability of crystalline compound of formula I in comparison to amorphous material of formula II. Samples of the compounds of formula I and II were packed into glass vials. Chemical stability was monitored over a period up 28 days under different conditions as indicated at each table.

[2] = Humidity-resolved XRPD in humidity chamber (phase transitions); conditions: 25° C.
Experimental: The samples were subjected to a pre-defined humidity program lasting 48 hours in an SMS VGI-2000 chamber at a constant temperature of 25° C. XRPD patterns were collected continuously with a data collection time of between 6 and 11 min. (The amorphous sample was treated with the humidity-program reversed: first rising the humidity to 95%, then lowering it to 0% and rising to 95% again.).

[3] = Water vapour sorption (DVS), hygroscopicity; conditions: 80% r.h. (25° C.)
Experimental: The water sorption experiments were performed with a SPS11-10μ (Projekt Messtechnik). Open aluminium pans were used and the measurements were performed at 25° C. The measured data was evaluated via the software Excel (Microsoft).

[4] = open glass vials, 75% relative humidity, 7 d
[5] = open glass vials, 75% relative humidity, 14 d
[6] = open glass vials, 75% relative humidity, 28 d
[7] = open glass vials, 75% relative humidity, Initial

CC(C)c1[nH]nc(O[C@@H]2O[C@H](CO)[C@@H](F)[C@H](O)[C@H]2O)c1Cc1ccc(CCCC(=O)NC(CO)(CO)CO)cc1 [Amorphous sample, 4-{4-[3-((2S,3R,4R,5S,6R)-5-Fluoro-3,4-dihydroxy-6-hydroxymethyl-tetrahydro-pyran-2-yloxy)-5-isopropyl-1H-pyrazol-4-ylmethyl]-phenyl}-N-(2-hydroxy-1,1-bis-hydroxymethyl-ethyl)-butyramide, reference compound]
Puirity (area %) ([1]; closed glass vials, 7 d): 96.5 area % | Total increase (area %) ([1]; closed glass vials, 7 d): 0.5 area % | Puirity (area %) ([1]; closed glass vials, 14 d): 96.1 area % | Total increase (area %) ([1]; closed glass vials, 14 d): 0.9 area % | Puirity (area %) ([1]; closed glass vials, 28 d): 95.6 area % | Total increase (area %) ([1]; closed glass vials, 28 d): 1.4 area % | Puirity (area %) ([1]; closed glass vials, Initial): 97.0 area % | Puirity (area %) [1, 4]: 96.2 area % | Total increase (area %) [1, 4]: 0.5 area % | Puirity (area %) [1, 5]: 95.9 area % | Total increase (area %) [1, 5]: 1.1 area % | Puirity (area %) [1, 6]: 95.5 area % | Total increase (area %) [1, 6]: 1.5 area % | Puirity (area %) [1, 7]: 97.0 area %

CC(C)c1[nH]nc(O[C@@H]2O[C@H](CO)[C@@H](F)[C@H](O)[C@H]2O)c1Cc1ccc(CCCC(=O)NC(CO)(CO)CO)cc1 [Crystalline hydrate I]
relative humidity at which starting phase B transformed to phase C ([2]; humidity lowered): about 2% | relative humidity at which phase D transformed back into the starting phase ([2]; humidity raised): around 20 % rel. hum. | relative humidity at which intermediate phase D formed ([2]; humidity raised again): about 10% | chemical stability during storage ([1]; 40° C. under dry conditions (closed vials) and 75% r.h): better chemical stability | Puirity (area %) ([1]; closed glass vials, 7 d): 97.2 area % | Total increase (area %) ([1]; closed glass vials, 7 d): 0.3 area % | Puirity (area %) ([1]; closed glass vials, 14 d): 97.1 area % | Total increase (area %) ([1]; closed glass vials, 14 d): 0.4 area % | Puirity (area %) ([1]; closed glass vials, 28 d): 97.0 area % | Total increase (area %) ([1]; closed glass vials, 28 d): 0.5 area % | Puirity (area %) ([1]; closed glass vials, Initial): 97.5 area % | Puirity (area %) [1, 4]: 97.3 area % | Total increase (area %) [1, 4]: ≦0.2 area % | Puirity (area %) [1, 5]: 97.3 area % | Total increase (area %) [1, 5]: ≦0.2 area % | Puirity (area %) [1, 6]: 97.3 area % | Total increase (area %) [1, 6]: ≦0.2 area % | Puirity (area %) [1, 7]: 97.3 area % | hygroscopicity compared to the amorphous form [3]: less hygroscopic
